According to patent US20240041899A1, “SOLID PREPARATION” (ASKA Pharmaceutical Co., Ltd., priority 2020, published 2024):

Tests used:
ovariectomized rats = assay: Test Example 5: antiprogesterone activity, uterine weight associated with rat deciduoma formation; format: in vivo
Experimental: For the compound A and the compound D (mifepristone), the antiprogesterone activity was measured. Specifically, a sex hormone and a test substance were repeatedly administered to ovariectomized rats as a test system to examine the antiprogesterone action (antiprogesterone activity) based on, as an index, the fluctuation of the uterine weight (the inhibitory action relative to the increase of the weight) associated with rat deciduoma formation.
More specifically, rats (female, Crl:CD(SD), 5-week-old: Charles River Laboratories Japan, Inc.) were subjected to ovariectomy, and from one (1) week after the ovariectomy, a high dose estrone of 5 μg/one animal was hypodermically administered to the rats once a day for three (3) days. From the day after one day rest period, the rats received, once a day over eight (8) days, hypodermic administration of a low dose estrone (1 μg/one animal), intramuscular administration of progesterone (6 mg/kg), and oral administration of a test substance. In the middle of the administration, on Day 4 of the start of administration, the rats were subjected to a stimulation treatment of decidualization reaction to the right uterus. The day after the final administration, the uterine weight (right uterine body) was measured (n=6). Group E was subjected to ovariectomy and a stimulation treatment of decidualization reaction but was not subjected to a hormone treatment.
Group E: rats with ovariectomy without hormone treatment 0.5 v/v % Polysorbate 80 solution, 10 mL/kg (n=6) • Solvent group (control group): 0.5 v/v % Polysorbate 80 solution, 10 mL/kg (n=6) • Group A3: Compound A, 3 mg/kg (n=6) • Group A10: Compound A, 10 mg/kg (n=6) • Group A30: Compound A, 30 mg/kg (n=6) • Group D: Compound D (mifepristone), 3 mg/kg (n=6)

[1] = test system: rats having the urination disorder associated with diabetes; assay: Test Example 6: urination disorder model associated with streptozocin-induced diabetes, compound A versus compound C; format: in vivo; settings: STZ diabetes model
Experimental: As described below, a model of a urination disorder associated with streptozocin-induced diabetes was prepared as a urination disorder model in accordance with Test Example 4 to evaluate the effects of the compound A and the compound C on a urination disorder. This model has no benign prostatic hyperplasia and is a model of a urination disorder associated with neuropathy and smooth muscle contraction disorder.
The body weights of Rats (male, Crl:CD(SD), 5-week-old; Charles River Laboratories Japan, Inc.) were measured. On the basis of the body weight, the rats were grouped or divided into two (2) groups. The day after the rats were grouped, a first group received intraperitoneal administration of a citrate buffer (pH 4.5) (10 mL/kg) having a concentration of 0.1 mmol/L, and a second group received intraperitoneal administration of streptozocin (STZ; Sigma-Aldrich) (50 mg/kg). Streptozocin (STZ) was administered in the form of a solution of streptozocin having a concentration of 5 mg/mL in the citrate buffer.
About one (1) week after streptozocin (STZ) was administered, the body weight and the fasting blood glucose were measured. In the streptozocin (STZ) administration group (the second group), individuals having a fasting blood glucose level of not less than 300 mg/dL were used as animals with induced diabetes. These animals with induced diabetes are a model having no abnormality of the prostate (having no benign prostatic hyperplasia). On the basis of the body weight and the fasting blood glucose level, the animals (models) with induced diabetes were grouped or divided into three (3) groups by randomized, multivariable block allocation.
To the three model groups with induced diabetes, a 0.5 v/v % Polysorbate 80 solution (0.5% P) (10 mL/kg), the compound A (3 mg/kg), and the compound C (dutasteride) (0.3 mg/kg) were orally administered, respectively, wherein the administration schedule in all groups was a frequency of once a day, only on weekdays, over four (4) weeks. Moreover, to the above-mentioned first group, a 0.5 v/v % Polysorbate 80 solution (0.5% P) (10 mL/kg) was orally administered in the same administration schedule (normal group). On the last day of administration, a cannula was inserted into and secured to the dome of the bladder under isoflurane anesthesia, and cystometry (Cystometogram, CMG) was conducted in the order of under awake condition and under urethane anesthesia to measure the intravesical pressure, the voided volume, and the residual urine volume. After the completion of the measurement, the blood was collected under deep isoflurane anesthesia, and then the prostate (ventral prostate, dorsolateral prostate) was extracted and each was weighed. Moreover, the blood glucose level in the collected blood was measured.
Normal group: citrate buffer 10 mL/kg (intraperitoneal administration), 0.5% P 10 mL/kg (oral administration) (n=10) • Solvent group (control group): STZ 50 mg/kg (intraperitoneal administration), 0.5% P 10 mL/kg (oral administration) (n=10) • Group A3: STZ 50 mg/kg (intraperitoneal administration), Compound A 3 mg/kg (oral administration) (n=10) • Group C0.3: STZ 50 mg/kg (intraperitoneal administration), Compound C (dutasteride) 0.3 mg/kg (oral administration) (n=10)
Urination parameter: In the same manner as in Test Example 4, the residual urine volume (mL) and the urination efficiency (%) were determined as urination parameters in each urination, and the average value of two measurements was taken as a measured value of each individual.
Prostate weight: In the same manner as in Test Example 4, the weight of the prostate (ventral prostate, dorsolateral prostate, and whole) was converted to a tissue weight per 100 g of the body weight. For Group A3, which received the compound A, and Group C0.3, which received the compound C, the inhibition rate of the weight of the prostate relative to the weight of the prostate in the solvent group was calculated (with one decimal place). […]

[2] = Compound A 3 mg/kg, in comparison with the solvent group (p<0.05)
[3] = Compound A oral 3 mg/kg, 4 weeks
[4] = Compound A oral 3 mg/kg, relative to solvent group

CC(=O)O[C@]1(C(C)=O)C[C@@H](O)[C@H]2[C@@H]3C=C(Cl)C4=CC(=O)OC[C@]4(C)[C@H]3CC[C@@]21C [Compound A, 17α-acetoxy-6-chloro-15β-hydroxy-2-oxa-4,6-pregnadiene-3,20-dione]
inhibition at 3 mg/kg (ovariectomized rats; Rattus norvegicus, 192 h, ovariectomized rats, estrone + progesterone, oral 3 mg/kg once a day 8 days, compared with the solvent group, read-out: inhibition rate (increase of uterine weight, deciduoma formation)): 15% | inhibition at 10 mg/kg (ovariectomized rats; Rattus norvegicus, 192 h, ovariectomized rats, estrone + progesterone, oral 10 mg/kg once a day 8 days, compared with the solvent group, read-out: inhibition rate (increase of uterine weight, deciduoma formation)): 63% | inhibition at 30 mg/kg (ovariectomized rats; Rattus norvegicus, 192 h, ovariectomized rats, estrone + progesterone, oral 30 mg/kg once a day 8 days, compared with the solvent group, read-out: inhibition rate (increase of uterine weight, deciduoma formation)): 83.3% | antiprogesterone activity (ovariectomized rats; ovariectomized rats, 3, 10, 30 mg/kg oral): has an antiprogesterone activity | therapeutic effect on diabetes ([1]; Compound A 3 mg/kg): no therapeutic effect | weights of the ventral prostate, the dorsolateral prostate, and the whole prostate ([1]; Compound A 3 mg/kg, compared with the solvent group (P<0.05)): significant decrease | residual urine volume, cystometry (CMG) under awake condition [1, 2]: significantly decreased | urination efficiency, cystometry (CMG) under awake condition [1, 2]: significantly improved | bladder contraction force on urination by nomogram analysis ([1]; Compound A 3 mg/kg, in comparison with the solvent group and Group C0.3): strong bladder contraction force | effect on the blood glucose level ([1]; Compound A 3 mg/kg, vs solvent group): did not statistically affect | Blood glucose level [1, 3]: 972.4 ± 312.3 mg/dL | Prostate weight, dorsolateral prostate [1, 3]: 38.8 ± 4.2 mg/100 g body weight | Prostate weight, ventral prostate [1, 3]: 61.2 ± 12.4 mg/100 g body weight | Prostate weight, whole [1, 3]: 99.9 ± 15.5 mg/100 g body weight | Dorsolateral prostate atrophy rate [1, 4]: (40.2%) | Ventral prostate atrophy rate [1, 4]: (40.0%) | Whole prostate atrophy rate [1, 4]: (40.1%)
